The results in this text go back to patent US9334242B2, “Compounds for treatment of cancer” (GTX, INC., priority 2010, dated 2016).

Data set [1] has as its target Bovine brain tubulin (Bos taurus, UniProt P81947+Q6B856). The experiment in a line: In vitro tubulin polymerization assay. It counts as biochemical. The settings on record: 10 μM. The protocol: In Vitro Tubulin Polymerization Assay.
In vitro microtubule polymerization assay. […] The spectrophotometer was maintained at 37° C. for tubulin polymerization.

In data set [2] the test system is A375 melanoma xenografts. The experiment in a line: A375 tumor xenograft study in athymic nude mice. It counts as in vivo, mouse. The conditions noted are these: for T − C: tumor growth delay. An excerpt:
(§1) PC-3 and A375 tumor xenograft studies.

Data set [3] has as its system B16-F1 melanoma cells. The experiment in a line: Melanoma colony formation assay in soft agar. Type of data set: cell-based, mouse. The conditions noted are these: 14 days, tested 20, 100, 500 nM. How it is done: B16-F1 melanoma cells were plated at a colony-forming density (2000 cells per well on six-well plates) on top of 0.8% base agar. Cells were grown in 0.4% agar together with DMEM medium supplemented with fetal bovine serum and an antibiotic-antimycotic solution at 37° C. in an atmosphere of 95% air and 5% CO2. […] Compounds were added to the media from 1-mM DMSO stock solutions, and a corresponding dilution of DMSO was used as control. Cells were grown for 14 days. Plates were photographed, and the number of colonies was measured by Artek 880 Automated Colony Counter (Artek Systems Corporation, Farmingdale, N.Y.).

The test system of data set [4] is WM-164 melanoma cells. The data set can be described thus: Microtubule imaging (immunofluorescence, Cellomics Cytoskeleton rearrangement kit). It counts as cell-based, human. The settings on record: WM-164 cells, 18 h. An excerpt: Primary antibody for tubulin and fluorescence-labeled secondary antibody were subsequently added to the cells. Cell nuclei were stained by DAPI. Whole Cell Stain Green was also applied to all cells. All images were acquired with an Olympus IX71 inverted fluorescence microscope (Olympus Corp., Tokyo, Japan) with overlays from separate images of tubulin (red), nuclei (blue), and whole cells (green).

The subject of data set [5] is T1, tubulin colchicine binding site.
T1 construct: […]; other: SPA
The experiment in a line: [3H]-colchicine competition-binding scintillation proximity assay. The settings on record: SPA. For orientation: Scintillation proximity formats need no separation of bound from free tracer.

Data set [6] concerns ICR mice. The data set can be described thus: Rotarod test (in vivo neurotoxicity). Also noted: species or system mouse. The conditions noted are these: 1h 5 or 15 mg/kg, vinblastine 0.5 mg/kg, i.p. daily to day 31. (The rotarod test checks motor coordination on a turning rod.)
In data set [7] the test system is melanoma (B16-F1, A375, WM-164) and prostate cancer (LNCaP, PC-3, DU 145, PPC-1) cell lines. The data set can be described thus: Cytotoxicity SRB assay, ranges or averages quoted over the melanoma and prostate cancer cell lines. Type of data set: cell-based. A general note: The SRB assay estimates cell density from bound dye.
In data set [8] the test system is PPC-1. The experiment in a line: Cytotoxicity / cell growth inhibition, SRB assay. The conditions noted are these: Homo sapiens, PPC-1, 96 h, read-out: IC50 ± SEM (nM) PPC-1, Table 12; 96 h exposure.
Data set [9] in a line: in vivo. The settings on record: male, ICR, mouse, plasma, iv, 10 mg/kg.
Data set [10] is described as follows: in vivo. The settings on record: female, Sprague-Dawley, rat, plasma, iv, 5 mg/kg.
Data set [11] relates to PC-3 prostate tumor xenograft. The data set can be described thus: PC-3 tumor xenograft study in nude mice. The conditions noted are these: for % T/C: PC-3 xenograft; for mice that lost more than 15% body weight: PC-3 xenograft study. It counts as in vivo, mouse.
Excerpt: as §1

The test system of data set [12] is A375 cells. The experiment in a line: Apoptosis detection by ELISA (cytoplasmic DNA-histone complexes). The conditions noted are these: 24 h. It counts as cell-based, human. The source says: (§2) Apoptosis detection by ELISA. Quantification of the enrichment of mono- and oligonucleosomes in the cytoplasm was used to determine the ability of the compounds to induce apoptosis (cell death detection ELISA PLUS, Roche, Germany) following the manufacturer's instructions.

Data set [13] deals with PC-3 cells. Described as above. The conditions noted are these: 24 h. Type of data set: cell-based, human.
Excerpt: as §2

The nature of data set [14]: Pharmacokinetic study in ICR mice. The settings on record: ICR mice, 15 mg/kg i.v.
Data set [15] deals with PC-3. The experiment in a line: Cytotoxicity / cell growth inhibition, SRB assay. The settings on record: Homo sapiens, PC-3, read-out: IC50 (nM) PC-3, Table 6A.
Data set [16] relates to prostate cancer cells (LNCaP, DU 145, PC-3, PPC-1). The experiment in a line: Cytotoxicity SRB assay, values quoted for the prostate cancer cell panel. The settings on record: Homo sapiens, read-out: IC50s against prostate cancer cells (range). It counts as cell-based.
[17] abbreviates: after 20 min incubation, compared to vehicle (Example 11D).
The mark [18] stands for this setting: range given, read-out: IC50 (range over the tested cancer cell lines).
Where [19] appears, read: quoted in the text to Table 2, read-out: IC50 (range or bound over the tested cancer cell lines).

pIC50: −log10 of the molar value. Where two headings read alike, the source gives them in different places.

As to `Cc1ccc(-c2nc(C(=O)c3ccc(F)cc3)c[nH]2)cc1` [12 db, (4-fluorophenyl)(2-(p-tolyl)-1H-imidazol-4-yl)methanone], in data set [1] (15 min (Example 16)), the “inhibition of tubulin polymerization” value is roughly 80%. As to `COc1cc(C(=O)c2csc(-c3ccc(F)cc3)n2)cc(OC)c1OC` [SMART-F], in data set [2] (Melanoma (A375) xenograft, 15 mg/kg i.p., doubling time 4.6 d), the “Total log cell kill” value is listed as 0.7. For the same molecule, in data set [2] (Melanoma (A375) xenograft, 15 mg/kg i.p.), the “T − C” value is 11 days.

For `COc1cc(C(=O)c2c[nH]c(-c3ccc(C)cc3)n2)cc(OC)c1OC` [12da, (2-(p-tolyl)-1H-imidazol-4-yl)(3,4,5-trimethoxyphenyl)methanone], the “concentration with effective inhibition of B16-F1 melanoma colony formation” value in data set [3] is recorded as 20 nM. For the same molecule, the “inhibition of tubulin polymerization” value in data set [1] (15 min (Example 16)) was “completely inhibited”. Moreover, in data set [4], the “effect on microtubule arrangement” value is “microtubule fragmentation”. The “competition for the tubulin colchicine binding site (in words)” value in data set [5] is “highest binding affinity”.

As for `COc1cc(C(=O)c2csc(Nc3ccccc3)n2)cc(OC)c1OC` [5a, (2-(Phenylamino)thiazol-4-yl)(3,4,5-trimethoxyphenyl)methanone], in data set [1] (setting [17]), the “inhibition of tubulin polymerization” value is 78%.

Regarding `CC[C@]1(O)C[C@@H]2CN(CCc3c([nH]c4ccccc34)[C@@](C(=O)OC)(c3cc4c(cc3OC)N(C)[C@H]3[C@@](O)(C(=O)OC)[C@H](OC(C)=O)[C@]5(CC)C=CCN6CC[C@]43[C@@H]65)C2)C1` [vinblastine, reference compound], the “time on the rotating rod compared to the vehicle group” value in data set [6] is given as “gradually reduced the time”. Take `COc1cc(C(=O)[C@H]2COC(c3ccccc3)=N2)cc(OC)c1OC` [35a, (2R)-(2-Phenyl-4,5-dihydro-oxazol-4-yl)-(3,4,5-trimethoxy-phenyl)-methanone]: in [7] (range given), the “IC50 (range over the tested cancer cell lines)” value is on record as “hundreds of nanomolar range”. Turning to `CN(C)c1ccc(-c2nc(C(=O)c3ccc(F)cc3)c[nH]2)cc1` [12gb, (2-(4-(dimethylamino)phenyl)-1H-imidazol-4-yl)(4-fluorophenyl)methanone], the IC50 (as a rule, the midpoint of a concentration-inhibition curve) in [8] is 4 nM.

For the molecule `O=C(c1ccc(F)cc1)c1c[nH]c(-c2ccc(OCc3ccccc3)cc2)n1` [12jb, (2-(4-(benzyloxy)phenyl)-1H-imidazol-4-yl)(4-fluorophenyl)methanone], in data set [7], the “increase in activity compared with 12 kb (fold)” value was 440 fold. Take `COc1ccc(-c2nc(C(=O)c3ccc(F)cc3)c[nH]2)cc1` [12cb, (4-fluorophenyl)(2-(4-methoxyphenyl)-1H-imidazol-4-yl)methanone]: the “concentration with effective inhibition of B16-F1 melanoma colony formation” value in data set [3] is given as 20 nM. The “effect on microtubule arrangement” value in [4] was “microtubule fragmentation”.

On to `COc1cc(C(=O)c2csc(-c3ccc(CN(C)C)cc3)n2)cc(OC)c1OC.Cl` [2u, (2-(4-((Dimethylamino)methyl)phenyl)thiazol-4-yl)(3,4,5-trimethoxyphenyl)methanone hydrochloride], for which the “IC50 (range over the tested cancer cell lines)” value in data set [7] (range given) is “abrogated activity”. As to `COc1cc(C(=O)c2c[nH]c(-c3ccc(Cl)cc3)n2)cc(OC)c1OC` [12fa, (2-(4-chlorophenyl)-1H-imidazol-4-yl)(3,4,5-trimethoxyphenyl)methanone], in data set [9], the Vd – broadly, a proportionality between amount in the body and measured concentration, not a real space – stood at 4 L/kg; the clearance (as a rule, the rate of elimination divided by the concentration) came to 61 mL/min/kg. In [10], this molecule came in with a Vd of 1.9 L/kg and a clearance of 16 mL/min/kg. Turning to `COc1cc(C(=O)c2csc(-c3ccc4[nH]ccc4c3)n2)cc(OC)c1OC` [66a], the “inhibition of tubulin polymerization” value in [1] (setting [17]) was found to be 81%. Besides, the pIC50 in [7] (setting [18]) was 7.60 to 8.15.

In the case of `COc1cc(C(=NC#N)c2csc(-c3ccccc3)n2)cc(OC)c1OC` [2j, N-((2-phenylthiazol-4-yl)(3,4,5-trimethoxyphenyl)methylene)cyanamide], the “inhibition of tubulin polymerization” value in [1] (setting [17]) came to 64%. `COc1cc(C(=O)c2csc(-c3ccc(F)cc3)n2)cc(OC)c1OC` [2k]: the results for the “% T/C” value in data set [11] (5 mg/kg i.p.) and in [11] (15 mg/kg i.p.) were 21% and 24%, respectively. Besides, the “mice that lost more than 15% body weight” value in [11] (15 mg/kg i.p.) is recorded as 2 out of 7. The “inhibition of tubulin polymerization” value in data set [1] (15 min (Example 22)) is on record as 90%. For the same molecule, the concentration inducing apoptosis in data set [12] and in data set [13] was 50 nM in each case. For the same molecule, in [2] (1h 20 mg/kg, 2k 15 mg/kg, i.p.), the “% T/C, A375” value stood at 29%. In [2] (1h 20 mg/kg, 2k 15 mg/kg, i.p., 34 days), the “tumor volume, A375” value is 722 mm^3. `COc1cc(C(=O)c2coc(-c3ccccc3)n2)cc(OC)c1OC` [36a, (2-Phenyl-oxazol-4-yl)-(3,4,5-trimethoxy-phenyl)-methanone]: in data set [7] (range given), the “IC50 (range over the tested cancer cell lines)” value is “hundreds of nanomolar range”.

On to `COc1cc(C(=O)c2csc(-c3ccc(O)cc3)n2)cc(OC)c1OC` [2l, (2-(4-Hydroxyphenyl)thiazol-4-yl)(3,4,5-trimethoxyphenyl)methanone], for which, in [11] (50 mg/kg i.p.), the “% T/C” value is on record as 34%. The “inhibition of tubulin polymerization” value in [1] (15 min (Example 22)) is listed as 55%. The “Vss relative to that of 1h and 2k (times higher)” value in data set [14] is given as 2-3 times. In data set [7] (setting [18]), the pIC50 was 6.94 to 7.12. The concentration inducing apoptosis result in [12] and in [13] was “greater than or equal to 200 nM” each time.

On to `COc1cc(C(=O)c2csc(-c3ccccc3)n2)cc(OC)c1OC` [1h, (2-Phenyl-thiazol-4-yl)-(3,4,5-trimethoxy-phenyl)-methanone], for which the “mice that lost more than 15% body weight” value in data set [11] (15 mg/kg i.p.) was 1 of 8. In data set [6], the “time on the rotating rod compared to the vehicle group” value is listed as “no significant difference”. Besides, the concentration inducing apoptosis in data set [12] and in data set [13] was 50 nM in each case. With `COc1cc(C(=NC#N)c2csc(-c3ccccc3)n2)cc(OC)c1O` [compound 32, N-((4-hydroxy-3,5-dimethoxyphenyl)(2-phenylthiazol-4-yl)methylene)cyanamide], the IC50 in [15] was determined as 229 nM.

In the case of `COc1cc(C(=O)c2csc(-c3ccccc3)n2)cc(OC)c1OC` [SMART-H], the “T − C” value in data set [2] (Melanoma (A375) xenograft, 20 mg/kg i.p.) is 10 days. Turning to `CNCc1ccc(-c2nc(C(=O)c3cc(OC)c(OC)c(OC)c3)cs2)cc1.Cl` [2s, (2-(4-((Methylamino)methyl)phenyl)thiazol-4-yl)(3,4,5-trimethoxyphenyl)methanone hydrochloride], the “IC50 (range over the tested cancer cell lines)” value in data set [7] (range given) is “abrogated activity”. As to `COc1ccc(S(=O)(=O)Nc2cccnc2Nc2ccc(O)cc2)cc1` [ABT-751, reference compound], the “effect on microtubule arrangement” value in data set [4] is on record as “microtubule fragmentation”.

Take `COc1cc(/C(=N\O)c2csc(-c3ccccc3)n2)cc(OC)c1OC` [2e-trans, (E)-(2-Phenylthiazol-4-yl)(3,4,5-trimethoxyphenyl)methanone oxime]: the pIC50 in data set [7] (setting [19]) is less than 5.00. On to `COc1cc(C(=O)c2cccc(-c3ccccc3)c2)cc(OC)c1OC` [1a, Biphenyl-3-yl(3,4,5-trimethoxyphenyl)methanone], for which the “IC50 (range over the tested cancer cell lines)” value in [7] (range given) is on record as “hundreds of nanomolar range”.

For the molecule `COc1cc(/C(=N/O)c2csc(-c3ccccc3)n2)cc(OC)c1OC` [2e-cis, (Z)-(2-Phenylthiazol-4-yl)(3,4,5-trimethoxyphenyl)methanone oxime], the pIC50 in [7] (setting [19]) is 6.52 to 7.00. For `COc1cc(C(=O)c2cccc(-c3ccccc3)n2)cc(OC)c1OC` [1c, (6-Phenylpyridin-2-yl)(3,4,5-trimethoxyphenyl)methanone], the pIC50 in data set [16] was 7.46 to 7.92.
